# Data: publication PMC8326117 (International Journal of Biological Sciences, 2021)
# Tests used:
# ACE2 = ACE2 (Homo sapiens, UniProt Q9BYF1); assay: LSPR assay, binding to ACE2
# [1] = mouse, in vivo
# Chain of ACE2 (Q9BYF1 18-805): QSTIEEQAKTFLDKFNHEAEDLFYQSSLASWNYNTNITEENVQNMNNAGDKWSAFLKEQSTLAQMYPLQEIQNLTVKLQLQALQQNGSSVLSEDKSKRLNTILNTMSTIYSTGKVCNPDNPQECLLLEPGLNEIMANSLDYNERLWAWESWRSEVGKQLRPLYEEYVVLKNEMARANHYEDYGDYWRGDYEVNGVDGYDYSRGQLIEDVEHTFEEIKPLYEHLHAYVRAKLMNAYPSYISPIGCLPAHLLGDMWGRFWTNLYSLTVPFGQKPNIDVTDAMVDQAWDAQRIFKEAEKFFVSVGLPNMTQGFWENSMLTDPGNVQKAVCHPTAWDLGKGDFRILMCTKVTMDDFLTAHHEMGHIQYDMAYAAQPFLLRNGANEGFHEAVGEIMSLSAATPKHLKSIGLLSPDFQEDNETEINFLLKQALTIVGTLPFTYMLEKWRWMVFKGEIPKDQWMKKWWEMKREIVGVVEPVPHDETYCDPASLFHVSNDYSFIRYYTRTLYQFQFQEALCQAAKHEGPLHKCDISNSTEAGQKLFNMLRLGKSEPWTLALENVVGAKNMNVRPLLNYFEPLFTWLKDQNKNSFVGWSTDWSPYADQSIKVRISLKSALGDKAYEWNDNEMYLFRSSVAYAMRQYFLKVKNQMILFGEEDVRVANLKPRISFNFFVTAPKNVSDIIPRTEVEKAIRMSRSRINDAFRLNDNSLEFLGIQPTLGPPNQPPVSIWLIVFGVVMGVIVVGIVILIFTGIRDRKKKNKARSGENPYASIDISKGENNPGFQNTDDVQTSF
smiles,measurement,setting,value
CC(C)C[C@H](NC(=O)[C@@H]1CCCN1C(=O)[C@H](Cc1ccccc1)NC(=O)[C@H](Cc1ccc(O)cc1)NC(=O)[C@H](CS)NC(=O)[C@H](CC(N)=O)NC(=O)[C@H](Cc1ccccc1)NC(=O)CNC(=O)[C@H](CCC(=O)O)NC(=O)[C@@H](NC(=O)[C@H](CCCCN)NC(=O)[C@H](CCCCN)NC(=O)[C@H](CCCCN)NC(=O)[C@H](CCCCN)NC(=O)[C@H](CCCCN)NC(=O)[C@@H](N)CCCCN)C(C)C)C(=O)N[C@@H](CCC(N)=O)C(=O)N[C@@H](CO)C(=O)O [AYp28],Kd,ACE2,0.0476 µM
same,koff,ACE2; pH 7.4,0.000205 s⁻¹
same,kon,ACE2; pH 7.4,4310 M⁻¹ s⁻¹
same,distribution in livers and kidneys,[1],not in the kidneys and livers
same,distribution in lungs and small intestine,[1],preferentially distributed in the lungs and intestine
same,cytotoxicity,HEK293T/hACE2 cells,no significant cytotoxicity
